Reference: patent US11339169B2, “P2X3 and/or P2X2/3 compounds and methods” (Asana BioSciences, LLC, priority 2016, dated 2022)
pIC50: −log10 of the molar value. Values joined by “and” are separate entries in the source; they are usually repeats but may differ in a detail not shown here. Identical values can stand only once.

Tests used:
[1] = tested on: Male Sprague Dawley rats; experiment: In vivo thermal hyperalgesia (Hargreaves test), CFA-injected rat; conditions: at 1 hour, p<0.01
Description: Male Sprague Dawley rats of young adult age group and body weight range of 180-200 g were included in the study. Animals were housed under a 12 h light/dark cycle with food and water ad libitum. The animals underwent acclimatization with the observation chambers of the Hargreaves' apparatus for two days, twice daily for 45-60 min each time prior to initiation of study. Animals were also habituated to the apparatus for 15-30 min before each testing. Thermal hyperalgesia was assessed using the rat plantar test (Ugo Basile, Italy) following a modified method of Hargreaves (1988), “A new and sensitive method for measuring thermal nociception in cutaneous hyperalgesia”, Pain 32: 77-88, the entire disclosure of which is herein incorporated by reference. […]
Following basal readout of PWL values to the thermal stimulus (PWL measurements described previously), 50 μL of complete Freund's Adjuvant (CFA—1 mg/mL suspension—Sigma, USA, Cat #F5881) was injected subcutaneously into the plantar surface of the right hind (ipsilateral) paw of animals under light isoflurane anesthesia. […]
Next day (day 1) after 20-22 h of CFA injection, PWL of animals were recorded. Mean of three readings are taken as PWL recording of ipsilateral paw of each animal for pre and post CFA basal readout. […]

[2] = target: T1, hP2X2/3 (Homo sapiens, UniProt P56373+Q9UBL9); experiment: FLIPR intracellular calcium assay, hP2X2/3; format: cell-based; conditions: human P2X2/3-TRex293 cells, agonist at EC75
T1 construct: host or cells: TRex293 (hP2X2/3-TRex293), doxycycline-induced
T1 sequence (P56373 1-397): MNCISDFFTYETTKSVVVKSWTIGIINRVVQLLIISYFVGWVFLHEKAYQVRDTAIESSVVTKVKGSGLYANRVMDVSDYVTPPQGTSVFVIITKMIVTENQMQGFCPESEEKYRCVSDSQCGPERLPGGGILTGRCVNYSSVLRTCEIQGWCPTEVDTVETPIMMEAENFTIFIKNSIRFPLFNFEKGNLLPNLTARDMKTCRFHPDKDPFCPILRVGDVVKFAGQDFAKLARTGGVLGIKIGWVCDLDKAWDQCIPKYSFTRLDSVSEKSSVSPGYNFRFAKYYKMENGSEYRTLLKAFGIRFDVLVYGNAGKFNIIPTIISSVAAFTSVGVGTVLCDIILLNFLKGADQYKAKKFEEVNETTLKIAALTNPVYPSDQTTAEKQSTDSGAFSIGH
T1 sequence (Q9UBL9 1-471): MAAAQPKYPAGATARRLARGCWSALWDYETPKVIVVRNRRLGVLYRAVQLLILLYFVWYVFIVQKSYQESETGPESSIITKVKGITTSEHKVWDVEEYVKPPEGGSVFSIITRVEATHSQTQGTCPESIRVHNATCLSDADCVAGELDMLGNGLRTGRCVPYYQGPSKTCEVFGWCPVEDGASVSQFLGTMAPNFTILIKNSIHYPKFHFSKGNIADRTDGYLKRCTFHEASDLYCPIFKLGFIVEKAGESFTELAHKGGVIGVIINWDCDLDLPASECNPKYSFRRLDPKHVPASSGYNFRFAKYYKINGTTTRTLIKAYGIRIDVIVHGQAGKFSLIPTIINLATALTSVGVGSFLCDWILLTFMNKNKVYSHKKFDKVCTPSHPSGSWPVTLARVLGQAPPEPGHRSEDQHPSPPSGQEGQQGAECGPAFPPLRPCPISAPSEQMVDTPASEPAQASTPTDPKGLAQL
How it was run: (§1)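 HEK (hP2X3) or tetracycline-inducible TRex293 (hP2X2/3) cells loaded with Calcium 4 dye, then given 11-point half-log compound dilutions for 15 min at room temperature in HBSS/HEPES, pH 7.4, with 1.8 mM CaCl2. Cells challenged with agonist at EC75; IC50 derived from fluorescence inhibition versus no-compound wells.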

[3] = target: T2, hP2X3 (Homo sapiens, UniProt P56373); experiment: FLIPR intracellular calcium assay, hP2X3; format: cell-based; conditions: human P2X3-HEK cells, agonist at EC75
T2 construct: host or cells: HEK (hP2X3-HEK)
T2 sequence (P56373 1-397): T1 sequence (P56373 1-397)
How it was run: as §1

SMILES	reversal to pre-treatment PWL value ([1]; 30 mg/kg po)	pIC50 [2]	pIC50 [3]	reversal to pre-treatment PWL value ([1]; 60 mg/kg po)
CCC(C)n1ncc2nc(N3CCN(C(N)=O)CC3)nc(N[C@@H](c3cnc4ccccc4c3)C3CC3)c21 (stereo partly drawn) [Example 10, 4-{1-sec-Butyl-7-[((R)-cyclopropyl-quinolin-3-yl-methyl)-amino]-1H-pyrazolo[4,3-d]pyrimidin-5-yl}-piperazine-1-carboxylic Acid Amide]	32%	7.00 to 9.00	7.00 to 9.00	–
CC[C@H](C)n1ncc2nc(N3CCN(C(C)=O)CC3)nc(N[C@H](C)c3cnc4ccccc4c3)c21 [Example 19]	–	6.00 to 7.00	7.00 to 9.00	36%
CCC(C)n1ncc2nc(-c3cnn(CCO)c3)nc(N[C@H](C)c3cnc4ccccc4c3)c21 (stereo partly drawn) [Example 113, 2-{4-[1-sec-Butyl-7-((R)-1-quinolin-3-yl-ethylamino)-1H-pyrazolo[4,3-d]pyrimidin-5-yl]-pyrazol-1-yl}-ethanol]	–	5.00 to 6.00	7.00 to 9.00	–
CCC(C)n1ncc2nc(-c3cnn(C)c3)nc(N[C@@H](c3cnc4ccccc4c3)C3CC3)c21 (stereo partly shown) [Example 114]	–	7.00 to 9.00	7.00 to 9.00	–
CCC(C)n1ncc2nc(-c3cnn(CC)c3)nc(N[C@@H](c3cnc4ccccc4c3)C3CC3)c21 (stereo partly shown) [Example 115]	–	6.00 to 7.00	7.00 to 9.00	–
CCC(C)n1ncc2nc(-c3cnn(CCF)c3)nc(N[C@@H](c3cnc4ccccc4c3)C3CC3)c21 (stereo partly shown) [Example 116]	–	7.00 to 9.00	7.00 to 9.00	–
Cn1cc(-c2nc(N[C@@H](c3cnc4ccccc4c3)C3CC3)c3c(cnn3C3CCOCC3)n2)cn1 [Example 117]	–	5.00 to 6.00	7.00 to 9.00	–
CCC(C)n1ncc2nc(C3CCN(C(N)=O)CC3)nc(N[C@@H](c3cnc4ccccc4c3)C3CC3)c21 (stereo partly shown) [Example 118]	–	5.00 to 6.00	7.00 to 9.00	–
CCC(C)n1ncc2nc(-c3cn[nH]c3)nc(N[C@@H](c3cnc4ccccc4c3)C3CC3)c21 (stereo partly shown) [Example 119]	–	5.00 to 6.00	7.00 to 9.00	–
CCC(C)n1ncc2nc(-c3cnn(CCO)c3)nc(N[C@@H](c3cnc4ccccc4c3)C3CC3)c21 (stereo partly shown) [Example 121]	–	6.00 to 7.00	7.00 to 9.00	–
CC[C@H](C)n1ncc2nc(-c3cnn(CCF)c3)nc(NC(CO)c3cnc4ccccc4c3)c21 (stereo partly shown) [Example 122]	–	6.00 to 7.00	7.00 to 9.00	–
CCC(C)n1ncc2nc(-c3cnn(CCF)c3)nc(N[C@H](C)c3cn4ccc(C)cc4n3)c21 (stereo partly shown) [Example 123]	–	5.00 to 6.00 and 6.00 to 7.00	7.00 to 9.00	–
CCC(C)n1ncc2nc(C(=O)NC3CC3)nc(N[C@@H](c3cnc4ccccc4c3)C3CC3)c21 (stereo partly drawn) [Example 124, 1-sec-Butyl-7-[((R)-cyclopropyl-quinolin-3-yl-methyl)-amino]-1H-pyrazolo[4,3-d]pyrimidine-5-carboxylic Acid Cyclopropylamide]	–	5.00 to 6.00	7.00 to 9.00	–
CCC(C)n1ncc2nc(-c3nnc(C)o3)nc(N[C@@H](c3cnc4ccccc4c3)C3CC3)c21 (stereo partly drawn) [Example 125, [1-sec-Butyl-5-(5-methyl-[1,3,4]oxadiazol-2-yl)-1H-pyrazolo[4,3-d]pyrimidin-7-yl]-((R)-cyclopropyl-quinolin-3-yl-methyl)-amine]	–	5.00 to 6.00	7.00 to 9.00	–
CCC(C)n1ncc2nc(-n3cc(C(N)=O)nn3)nc(N[C@@H](c3cnc4ccccc4c3)C3CC3)c21 (stereo partly drawn) [Example 126, 1-{1-sec-Butyl-7-[((R)-cyclopropyl-quinolin-3-yl-methyl)-amino]-1H-pyrazolo[4,3-d]pyrimidin-5-yl}-1H-[1,2,3]triazole-4-carboxylic Acid Amide]	–	5.00 to 6.00	7.00 to 9.00	–
CCC(C)n1ncc2nc(-c3cccnn3)nc(N[C@@H](c3cnc4ccccc4c3)C3CC3)c21 (stereo partly drawn) [Example 127, (1-sec-Butyl-5-pyridazin-3-yl-1H-pyrazolo[4,3-d]pyrimidin-7-yl)-((R)-cyclopropyl-quinolin-3-yl-methyl)-amine]	–	5.00 to 6.00	7.00 to 9.00	–
